Results published in publication doi:10.1101/2025.03.03.641193, “Trihydroxybenzaldoximes are redox cycling inhibitors of ThDP-dependent DXP synthase” (bioRxiv, 2025).
Entries after “also recorded” stand apart in the source; their conditions may differ.

Tests used:
[1] = target: T1, EcDXPS (Escherichia coli, UniProt P77488); experiment: DXPS-IspC coupled assay, aerobic, WT EcDXPS; assay type: biochemical, E. coli
T1 construct: made in house
Procedure: (§1) Inhibitory activity of compounds against DXPS were monitored via a continuous spectrophotometric coupled assay with DXPS and IspC as previously described.[41],[42] Briefly, Reaction mixtures containing HEPES (100 mM, pH 8.0), MgCl2 (2 mM), NaCl (5 mM), ThDP (1 mM), BSA (1 mg/mL), DXPS (125–500 nM), IspC (1.7 μM), NADPH (160 μM), DMSO (5%, v/v), and inhibitor (0–200 μM) were preincubated at 25 °C (or chamber temperature 25–30 °C) for 5 min. Enzymatic reactions were initiated via the addition of 20 μL of a 10x substrate mix for a final well volume of 200 μL. Reactions were performed in triplicate unless otherwise noted. See the following sections for details and modifications.
When varying pyruvate (0–500 μM), GAP was maintained at 50 μM (3 mM for R478A). When varying GAP (0–500 μM), pyruvate was maintained at 500 μM. The following [DXPS] were used when varying 1: WT EcDXPS, R478A, H431A, D427A (200 nM), R99A (500 nM), WT DrDXPS, WT PaDXPS (150 nM). […] Reactions were incubated and initiated as described above. Immediately following initiation, NADPH depletion was monitored at 340 nm at 25 °C for 7–10 min with a 14–20 second time interval. Initial velocities of DXP formation were determined from the linear portion of the NADPH decay. […] Initial velocities were plotted vs. substrate concentration, and the data were fit to equation 1 (mixed model), 2 (competitive), or 3 (uncompetitive) based on the calculated α value and goodness of fit in GraphPad Prism. Reported standard errors of the mean for Kis are calculated from three replicates.

[2] = target: T2, PaDXPS (Pseudomonas aeruginosa, UniProt Q9KGU7); experiment: DXPS-IspC coupled assay, PaDXPS; assay type: biochemical
T2 construct: made in house
Procedure: as §1
(§2) When varying pyruvate (0–500 μM), GAP was maintained at 50 μM (3 mM for R478A). When varying GAP (0–500 μM), pyruvate was maintained at 500 μM. The following [DXPS] were used when varying 1: WT EcDXPS, R478A, H431A, D427A (200 nM), R99A (500 nM), WT DrDXPS, WT PaDXPS (150 nM). Analogs 3 and 4 were tested using WT EcDXPS (150 nM). Reactions were incubated and initiated as described above. Immediately following initiation, NADPH depletion was monitored at 340 nm at 25 °C for 7–10 min with a 14–20 second time interval. Initial velocities of DXP formation were determined from the linear portion of the NADPH decay. Initial velocities were arithmetically corrected for background for compound 4. Initial velocities were plotted vs. substrate concentration, and the data were fit to equation 1 (mixed model), 2 (competitive), or 3 (uncompetitive) based on the calculated α value and goodness of fit in GraphPad Prism. Reported standard errors of the mean for Kis are calculated from three replicates.

[3] = target: T3, R478A DXPS (Escherichia coli, UniProt P77488, R478A); experiment: DXPS-IspC coupled assay, R478A variant; assay type: biochemical, E. coli
T3 construct: made in house
Procedure: In this experiment, pyruvate was varied from 12.5–500 μM and D-GAP was maintained at 2x Km.. […] Thus, it appears that EcR478A is not absolutely critical for binding 1.
as §1, §2

[4] = target: T4, H431A DXPS (Escherichia coli, UniProt P77488, H431A); experiment: DXPS-IspC coupled assay, H431A variant; assay type: biochemical, E. coli
T4 construct: made in house
Procedure: To determine the role of active site network residues in the activity of oximes, inhibitory activity of 1 was assessed against EcD427A, EcH431A, and EcR99A by the DXPS-IspC coupled assay[41],[42] (Fig 4B, S3, Table S1). Ki determination was performed by varying [pyruvate] in order to assess the impact of residue substitutions on the uncompetitive mode of inhibition. […] (8.7 ± 1.2 μM, Fig S3, Table S1).
as §1, §2

[5] = target: T5, WT EcDXPS (Escherichia coli, UniProt P77488); experiment: Anaerobic apparent Ki, DXPS-IspC coupled assay; assay type: biochemical, E. coli
T5 construct: made in house
Procedure: as §1
Reaction components were brought into the anaerobic chamber and allowed to deoxygenate for ~2 hours. WT EcDXPS was used at 125 nM. When varying pyruvate (0–500 μM), GAP was maintained at 50 μM. When varying GAP (0–500 μM), pyruvate was maintained at 500 μM. Reactions were incubated and initiated as described above. Immediately following initiation, NADPH depletion was monitored at 340 nm at chamber temperature (25–30 °C) for 5 min with a ~17 second time interval. Initial velocities of DXP formation were determined as above, plotted vs. substrate concentration, and the data were fit to either equation 2, or 3 based on the calculated α value and goodness of fit in GraphPad Prism. Reported standard errors of the mean for Kis are calculated from three replicates.

[6] = target: T6, alcohol dehydrogenase (ADH) (Equus caballus, UniProt P00327); experiment: Inhibition of ADH; assay type: biochemical; conditions: up to 200 μM, MES pH 6.2
T6 construct: purchased Sigma Aldrich 55689
Procedure: Reaction mixtures containing MES (100 mM, pH 6.2), MgCl2 (2 mM), ThDP (5 mM), ADH (16 U/mL), NADH (170 μM), and 1 (0 or 200 μM) were preincubated at 25 °C for 5 min. Enzymatic reactions were initiated via the addition of 20 μL of 10x acetaldehyde (final 1mM), or water for background controls, for a final well volume of 200 μL. Immediately following initiation, NADH depletion was monitored at 340 nm at 25 °C for 6 min with a 11 second time interval. Initial velocities of ethanol formation were measured as above and arithmetically corrected for background rates. Reported standard errors of the mean for Kis are calculated from three replicates.

**Q.** `ON=Cc1cc(O)c(O)cc1O` [compound 1, 2,4,5-trihydroxybenzaldoxime] was tested. Which “%Inhibition at 200 μM 1” value ([1]; WT DXPS, HEPES pH 8, 200 μM) did it give?
**A.** The value was ~ 79%.

**Q.** What about the “MOI varying D-GAP” value ([1]; WT EcDXPS, aerobic) of the same molecule?
**A.** The value was “competitive”.

**Q.** And the MOI varying pyruvate ([1]; WT EcDXPS, aerobic)?
**A.** Its MOI varying pyruvate is “uncompetitive”.

**Q.** And the inhibition at 200 µM ([1]; pH 8, read-out: %Inhibition at 200 μM 1, WT DXPS, HEPES pH 8, 200 μM)?
**A.** The inhibition at 200 µM was 79.2 ± 0.2%.

**Q.** What about the Ki [2] of the same molecule?
**A.** Its Ki is 16.4 ± 2.2 µM.

**Q.** What about the “MOI varying D-GAP” value ([2]; PaDXPS) of the same molecule?
**A.** The value was “competitive”.

**Q.** And the MOI varying pyruvate ([2]; PaDXPS)?
**A.** The MOI varying pyruvate was “uncompetitive”.

**Q.** What about the “Ki/Ki^EcDXPS” value ([2]; PaDXPS, vary pyruvate, fold reduction in potency) of the same molecule?
**A.** Its value is 3.5.

**Q.** What about the Ki [3] of the same molecule?
**A.** Its Ki is 15.7 ± 0.4 µM.

**Q.** And the MOI varying pyruvate ([3]; EcR478A)?
**A.** Its MOI varying pyruvate is “uncompetitive”.

**Q.** And the “Ki/Ki^wt” value ([3]; R478A, vary pyruvate, fold reduction in potency vs WT)?
**A.** The value was ~ 3.

**Q.** And the Ki [4]?
**A.** The Ki was 1.1 ± 0.1 µM.

**Q.** What about the MOI varying pyruvate ([4]; EcH431A) of the same molecule?
**A.** The MOI varying pyruvate was “uncompetitive”.

**Q.** What about the “fold lower Ki relative to WT” value ([4]; H431A, vary pyruvate) of the same molecule?
**A.** The value was ~ 4 fold.

**Q.** What about the “Ki (+O2)/ Ki (-O2)” value ([5]; - O2) of the same molecule?
**A.** Its value is ~ 10.

**Q.** And the “MOI varying D-GAP” value ([5]; anaerobic, WT EcDXPS)?
**A.** Its value is “competitive”.

**Q.** What about the MOI varying pyruvate ([5]; anaerobic, WT EcDXPS) of the same molecule?
**A.** The MOI varying pyruvate was “uncompetitive”.

**Q.** And the “Inhibition of ADH” value [6]?
**A.** The value was “did not inhibit; also recorded: not inhibited”.
